Tests used:
Test in all cases: biochemical
KRAS G12C/SOS1 = target: T1, KRAS G12C/SOS1 (Homo sapiens, UniProt Q07889)
T1 sequence (Q07889 1-1333): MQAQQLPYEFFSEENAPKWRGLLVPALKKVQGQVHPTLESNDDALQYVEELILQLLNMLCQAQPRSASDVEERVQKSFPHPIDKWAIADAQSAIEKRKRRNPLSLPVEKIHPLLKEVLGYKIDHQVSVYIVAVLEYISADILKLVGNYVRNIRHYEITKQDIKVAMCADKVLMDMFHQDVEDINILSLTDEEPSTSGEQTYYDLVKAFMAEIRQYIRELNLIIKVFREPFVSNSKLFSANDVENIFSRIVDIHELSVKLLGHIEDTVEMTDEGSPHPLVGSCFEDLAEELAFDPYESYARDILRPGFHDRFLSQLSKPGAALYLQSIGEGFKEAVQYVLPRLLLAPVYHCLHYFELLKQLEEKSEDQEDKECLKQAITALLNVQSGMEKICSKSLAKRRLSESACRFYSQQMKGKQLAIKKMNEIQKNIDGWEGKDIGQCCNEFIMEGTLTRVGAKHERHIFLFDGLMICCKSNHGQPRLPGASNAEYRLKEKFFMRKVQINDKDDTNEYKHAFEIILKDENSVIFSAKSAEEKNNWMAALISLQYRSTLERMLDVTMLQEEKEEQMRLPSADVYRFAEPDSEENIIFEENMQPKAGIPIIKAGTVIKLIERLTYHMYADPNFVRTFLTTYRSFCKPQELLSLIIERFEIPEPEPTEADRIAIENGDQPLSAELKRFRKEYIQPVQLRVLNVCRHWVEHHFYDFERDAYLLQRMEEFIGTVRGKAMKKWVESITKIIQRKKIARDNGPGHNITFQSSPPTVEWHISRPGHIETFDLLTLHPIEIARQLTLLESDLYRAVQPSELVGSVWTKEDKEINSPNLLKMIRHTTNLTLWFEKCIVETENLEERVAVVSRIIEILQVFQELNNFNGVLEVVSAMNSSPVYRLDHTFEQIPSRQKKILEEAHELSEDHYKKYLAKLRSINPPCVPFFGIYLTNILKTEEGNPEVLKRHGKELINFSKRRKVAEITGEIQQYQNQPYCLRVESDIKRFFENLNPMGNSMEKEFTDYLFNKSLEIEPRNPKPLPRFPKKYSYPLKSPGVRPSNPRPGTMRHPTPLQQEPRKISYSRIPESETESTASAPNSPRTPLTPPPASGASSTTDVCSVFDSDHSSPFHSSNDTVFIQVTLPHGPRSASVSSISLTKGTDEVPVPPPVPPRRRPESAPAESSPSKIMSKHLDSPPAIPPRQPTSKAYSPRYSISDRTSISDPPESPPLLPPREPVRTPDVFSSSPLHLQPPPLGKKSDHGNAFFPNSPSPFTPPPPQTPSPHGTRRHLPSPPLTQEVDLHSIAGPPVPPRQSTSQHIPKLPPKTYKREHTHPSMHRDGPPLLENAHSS

KRAS-WT/SOS1 = target: T2, KRAS-WT/SOS1 (Homo sapiens, UniProt Q07889)
T2 sequence (Q07889 1-1333): T1 sequence (Q07889 1-1333)

KRAS G12D/SOS1 = target: T3, KRAS G12D/SOS1 (Homo sapiens, UniProt Q07889)
T3 sequence (Q07889 1-1333): T1 sequence (Q07889 1-1333)

**Q.** How did the IC50 (KRAS G12C/SOS1) turn out when `Cc1nc(N[C@H](C)c2cccc3c2CCC3(F)F)c2c(n1)N(C)C(=O)N(C1CCOCC1)C2` [Example 26, (R)-5-((1-(1,1-difluoro-2,3-dihydro-1H-inden-4-yl)ethyl)amino)-1,7-dimethyl-3-(tetrahydro-2H-pyran-4-yl)-3,4-dihydropyrimido[4,5-d]pyrimidin-2(1H)-one] was run?
**A.** 100 to 500 nM

**Q.** Which IC50 (KRAS G12C/SOS1) does the source give for `C[C@@H](NC(=O)c1cn(C2CCOCC2)c(=O)c2cc[nH]c12)c1cccc(C(F)F)c1F` [Example 40, (R)—N-(1-(3-(difluoromethyl)-2-fluorophenyl)ethyl)-4-oxo-5-(tetrahydro-2H-pyran-4-yl)-4,5-dihydro-1H-pyrrolo[3,2-c]pyridine-7-carboxamide] here?
**A.** < 100 nM

**Q.** `COc1c(-c2ccc(=O)n(C)c2)cc(C(=O)N[C@H](C)c2cccc3c2CCC3(F)F)c2n[nH]cc12` [Example 17, N-[(1R)-1-(1,1-difluoro-2,3-dihydro-1H-inden-4-yl)ethyl]-4-methoxy-5-(1-methyl-6-oxo-1,6-dihydropyridin-3-yl)-2H-indazole-7-carboxamide] was tested. Which IC50 (KRAS G12C/SOS1) did it give?
**A.** < 100 nM

**Q.** How did the IC50 (KRAS-WT/SOS1) turn out when `COc1c(C2CCNCC2)cc(C(=O)N[C@H](C)c2cccc(C(F)(F)CO)c2)c2[nH]ncc12` [Example 35, N-[(1R)-1-[3-(1,1-difluoro-2-hydroxyethyl)phenyl]ethyl]-4-methoxy-5-(piperidin-4-yl)-1H-indazole-7-carboxamide] was run?
**A.** < 100 nM

**Q.** And the IC50 (KRAS G12D/SOS1)?
**A.** < 100 nM

**Q.** For `C[C@@H](NC(=O)c1cn(C2CCOCC2)c(=O)c2cc[nH]c12)c1cccc(C(F)(F)CO)c1` [Example 39, (R)—N-(1-(3-(1,1-difluoro-2-hydroxyethyl)phenyl)ethyl)-4-oxo-5-(tetrahydro-2H-pyran-4-yl)-4,5-dihydro-1H-pyrrolo[3,2-c]pyridine-7-carboxamide], which IC50 (KRAS G12C/SOS1) is on record?
**A.** < 100 nM

**Q.** `COc1c(N2CCOCC2)cc(C(=O)N[C@H](C)c2cccc3c2CCC3(F)F)c2n[nH]cc12` [Example 18, N-[(1R)-1-(1,1-difluoro-2,3-dihydro-1H-inden-4-yl)ethyl]-4-methoxy-5-(morpholin-4-yl)-2H-indazole-7-carboxamide] was tested. Which IC50 (KRAS-WT/SOS1) did it give?
**A.** < 100 nM

**Q.** What about the IC50 (KRAS G12D/SOS1) of the same compound?
**A.** < 100 nM

**Q.** `COc1c(C(C)N)cc(C(=O)N[C@H](C)c2cccc3c2CCC3(F)F)c2n[nH]cc12` (stereo partly drawn) [Example 24, 5-(1-aminoethyl)-N—((R)-1-(1,1-difluoro-2,3-dihydro-1H-inden-4-yl)ethyl)-4-methoxy-2H-indazole-7-carboxamide] was tested. Which IC50 (KRAS-WT/SOS1) did it give?
**A.** 100 to 500 nM

**Q.** What about the IC50 (KRAS G12D/SOS1) of the same compound?
**A.** 100 to 500 nM

**Q.** What does the source list for `COc1c(CN(C)C)cc(C(=O)N[C@H](C)c2cccc3c2CCC3(F)F)c2n[nH]cc12` [Example 19, N-[(1R)-1-(1,1-difluoro-2,3-dihydro-1H-inden-4-yl)ethyl]-5-[(dimethylamino)methyl]-4-methoxy-2H-indazole-7-carboxamide]?
**A.** IC50 (KRAS-WT/SOS1): 100 to 500 nM; IC50 (KRAS G12D/SOS1): 100 to 500 nM

**Q.** With `COc1c(C2CCCNC2)cc(C(=O)N[C@H](C)c2cccc(C(F)(F)CO)c2)c2[nH]ncc12` (stereo partly drawn) [Example 36, N—((R)-1-(3-(1,1-difluoro-2-hydroxyethyl)phenyl)ethyl)-4-methoxy-5-(piperidin-3-yl)-1H-indazole-7-carboxamide] as the compound, how does the IC50 (KRAS-WT/SOS1) read?
**A.** < 100 nM

**Q.** What about the IC50 (KRAS G12D/SOS1) of the same compound?
**A.** < 100 nM

**Q.** Which results are given for `COc1c(N2CCNCC2)cc(C(=O)N[C@H](C)c2cccc(C(F)(F)CO)c2)c2[nH]ncc12` [Example 33]?
**A.** IC50 (KRAS-WT/SOS1): < 100 nM; IC50 (KRAS G12D/SOS1): < 100 nM

**Q.** With `Cc1c([C@@H](C)NC(=O)c2cn(C3(C)CC3)c(=O)c3cn[nH]c23)cccc1C(F)(F)F` [Example 6, (R)-N-(1-(2-methyl-3-(trifluoromethyl)phenyl)ethyl)-5-(1-methylcyclopropyl)-4-oxo-4,5-dihydro-1H-pyrazolo[4,3-c]pyridine-7-carboxamide] as the compound, how does the IC50 (KRAS-WT/SOS1) read?
**A.** < 100 nM

**Q.** What about the IC50 (KRAS G12D/SOS1) of the same compound?
**A.** 100 to 500 nM

**Q.** `C[C@@H](NC(=O)c1cn(C2CC(F)(F)C2)c(=O)c2cn[nH]c12)c1cccc(C(F)(F)F)c1` [Example 14, (R)-5-(3,3-difluorocyclobutyl)-4-oxo-N-(1-(3-(trifluoromethyl)phenyl)ethyl)-4,5-dihydro-1H-pyrazolo[4,3-c]pyridine-7-carboxamide] was tested. Which IC50 (KRAS-WT/SOS1) did it give?
**A.** 100 to 500 nM

**Q.** And the IC50 (KRAS G12D/SOS1)?
**A.** 100 to 500 nM
